Source: patent US5525735A, “Methods for synthesizing diverse collections of pyrrolidine compounds” (AFFYMAX Technologies NV, priority 1994, dated 1996)
Where two headings read alike, the source gives them in different places.

Legend:
rabbit kidney ACE [1] = target: T1, rabbit kidney ACE (Oryctolagus cuniculus, UniProt P12822); test: Determination of inhibition constants (Ki), fluorometric ACE assay, hydrolysis of Hippuryl-His-Leu; assay type: biochemical
T1 construct: purchased Sigma; host or cells: rabbit kidney
T1 sequence (P12822 34-1310): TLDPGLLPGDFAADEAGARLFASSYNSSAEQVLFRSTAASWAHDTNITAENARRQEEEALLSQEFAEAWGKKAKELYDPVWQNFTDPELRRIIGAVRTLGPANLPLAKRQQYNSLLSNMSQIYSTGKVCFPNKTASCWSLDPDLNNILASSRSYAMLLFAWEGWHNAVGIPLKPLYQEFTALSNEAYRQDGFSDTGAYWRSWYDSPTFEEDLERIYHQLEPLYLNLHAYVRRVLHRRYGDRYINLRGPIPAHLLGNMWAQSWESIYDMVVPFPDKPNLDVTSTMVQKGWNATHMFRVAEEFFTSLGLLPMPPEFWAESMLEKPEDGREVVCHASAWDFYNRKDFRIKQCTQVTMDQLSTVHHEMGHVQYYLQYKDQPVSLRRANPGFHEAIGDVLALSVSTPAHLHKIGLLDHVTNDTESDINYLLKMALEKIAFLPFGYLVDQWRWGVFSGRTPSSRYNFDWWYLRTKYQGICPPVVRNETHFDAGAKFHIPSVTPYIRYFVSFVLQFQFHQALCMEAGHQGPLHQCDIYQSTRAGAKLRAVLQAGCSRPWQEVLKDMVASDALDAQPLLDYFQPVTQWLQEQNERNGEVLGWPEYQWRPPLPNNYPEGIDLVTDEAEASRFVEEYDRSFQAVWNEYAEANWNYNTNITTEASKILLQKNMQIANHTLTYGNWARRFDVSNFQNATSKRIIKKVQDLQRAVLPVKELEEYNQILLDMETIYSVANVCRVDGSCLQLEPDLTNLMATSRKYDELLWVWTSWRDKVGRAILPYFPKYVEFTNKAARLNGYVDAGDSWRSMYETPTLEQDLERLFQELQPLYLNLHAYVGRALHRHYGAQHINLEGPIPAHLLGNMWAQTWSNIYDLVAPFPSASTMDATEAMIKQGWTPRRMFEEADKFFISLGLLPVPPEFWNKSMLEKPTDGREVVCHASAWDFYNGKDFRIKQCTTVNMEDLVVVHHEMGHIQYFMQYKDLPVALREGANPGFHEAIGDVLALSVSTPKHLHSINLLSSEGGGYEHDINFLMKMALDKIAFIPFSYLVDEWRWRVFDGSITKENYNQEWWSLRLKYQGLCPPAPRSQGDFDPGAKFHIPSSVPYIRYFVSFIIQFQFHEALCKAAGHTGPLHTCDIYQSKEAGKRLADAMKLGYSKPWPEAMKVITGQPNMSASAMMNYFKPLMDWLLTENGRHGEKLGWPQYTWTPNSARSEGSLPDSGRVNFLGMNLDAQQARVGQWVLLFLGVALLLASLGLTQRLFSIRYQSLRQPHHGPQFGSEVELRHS
Experimental: The product, His-Leu, was then derivatized to a fluorophore by the addition of 2% o-phthalaldehyde (0.1 mL) in MeOH, followed by incubation at 25° C. for 8 minutes, addition of 2N HCl (0.2 mL), and then measuring fluorescence after 15 minutes incubation at 25° C.
(§1) The fluorescence intensity (arbitrary units) was determined using an SLM Aminco model 8000 spectrofluorometer equipped with a temperature regulated cell using an excitation wavelength at 360 nm and with an emission wavelength at 490 nm. The amount of His-Leu formed with time was determined from standard curves of fluorescence versus concentration of His-Leu (Sigma).
Inhibition constants were determined from double reciprocal plots of rate of product formation versus substrate concentration in the absence and presence of inhibitor.

rabbit kidney ACE [2] = target: T1, rabbit kidney ACE; test: in vitro inhibition of ACE by soluble compound pools (deconvolution analysis of library, fluorometric assay, IC50); assay type: biochemical; conditions: identified by iterative assay and sub-library resynthesis
Description: Functionalized prolines and proline analogs are frequently found as the C-terminal residue in numerous ACE inhibitors. Using the methods described herein, a library of prolines and proline analogs has been prepared. The library was formed by the split synthesis method^35, using four amino acids, four aldehydes, five olefins, and three mercaptoacyl chlorides as shown in FIG. 3 below. […] After cleavage from the resin (10% TFA in dichloromethane) and deacetylation of the protected mercaptoacyl proline products with ethylenediamine, the library was screened for in vitro inhibition of ACE^33 as soluble compound pools through four iterations of assay and sub-library resynthesis. At each step of this deconvolution analysis, the building block affording the most inhibitory pool was selected for the subsequent sub-library resynthesis.
To each product was added 200 μ.LAMBDA. of 1.0M ethylenediamine in methanol under nitrogen. […] The ACE inhibitory activity of each pool was immediately determined. […]
as §1, with “(Sigma). […]” for “(Sigma).”

Ki (rabbit kidney ACE [1]; after deacetylation, isomer assigned 2-R, read-out: Ki (individual diastereomers after deacetylation, earlier eluting isomer))	ACE inhibitory activity in words (library deconvolution) (rabbit kidney ACE [2])	Ki (rabbit kidney ACE [1]; 50 pM enzyme, 20 minute preincubation, assay times 10 or 20 minutes, pH 8.3, read-out: Ki (dissociation constant of the enzyme-inhibitor complex))	Ki (rabbit kidney ACE [1]; after deacetylation, read-out: Ki (individual diastereomers after deacetylation, later eluting isomer))	type of inhibition (rabbit kidney ACE [1]; double reciprocal plots, 50 pM enzyme, 20 minute preincubation)	fold more active than captopril (rabbit kidney ACE [1]; relative to captopril in the same assay)	SMILES
> 1000 nM	–	–	–	–	–	COC(=O)[C@@H]1C[C@H](C(=O)O)N(C(=O)[C@H](C)CS)[C@@H]1c1ccccc1 (single isomer, unassigned) [earlier eluting isomer]
–	potent ACE inhibitor	0.16 ± 0.05 nM	~0.16 nM	competitive type inhibition	approximately 3 fold	COC(=O)[C@H]1C[C@@H](C(=O)O)N(C(=O)[C@H](C)CS)[C@H]1c1ccccc1 [Compound 9, 1-(3'-thio-2'(S)-methyl-1'-oxopropyl)-5-phenyl-2,4-pyrrolidinedicarboxylicacid 4-methyl ester]
